Results published in patent US8604048B2, “Pyridocarbazole type compounds and applications thereof” (Centre National de la Recherche Scientifique, priority 2009, dated 2013).

Key:
[1] = test system: LIMK1 activity in HeLa cells; assay: Cellular LIMK1 activity assay (Ser3-cofilin phosphorylation, western blot); assay type: cell-based, Human; conditions: for Inhibition of Ser3-cofilin phosphorylation in HeLa cells: 2 h, indicated concentrations
Procedure: HeLa cells were treated by compounds (or equivalent amount of DMSO as control) at indicated concentrations and time. Whole cell extracts were prepared using RIPA buffer (50 mM Tris-HCl pH=7.4, 150 mM NaCl, 1% NP-40, 0.5% sodium deoxycholate, 1% SDS, 1 mM EGTA, 1 mM EDTA, 5% glycerol, 1 mM DTT) supplemented with protease inhibitors (Sigma, P8340) and phosphatase inhibitors (Sigma, P5726). About thirty micrograms of proteins were loaded and migrated through a 12% SDS-PAGE. After electro-transfer, the nitrocellulose membrane was saturated with PBS, 0.1% Tween® 20, 5% Bovin Serum Albumin. Amount and phosphorylation status of cofilin were estimated using the polyclonal antibodies anti-cofilin (Cytoskeleton, #ACFLO2) and anti-phosphocofilin (Ser3) (Cell Signaling, #3311). Goat anti-rabbit IgG-HorseRadish Peroxidase conjugated (Biosource, #ALI0404) was used as secondary antibody. Detection was performed using ECL plus western blotting detection system (GE Healthcare).
HeLa cells were treated by 25 μM Compound 1 (H06) for 2 h (lane 2). Culture medium was then discarded and fresh medium (RPMI) was added. At different times after RPMI addition (lane 3, 30 minutes; lane 4, 1 hour; lane 5, 1.5 hour; lane 6, 2 hours; lane 7, 4 hours), amount and phosphorylation status of cofilin were determined as described in Example 2. The lane 1 corresponds to time “0”, i.e. a cell extract of cells that have not been treated with Compound 1.
HeLa cells were treated by indicated concentrations of Compound 1 (or ellipticine as negative control) for 2 h.
Amount and phosphorylation status of cofilin were determined as described in Example 2. In vitro phosphorylated cofilin (left) was used as control.
HeLa cells were treated by 25 μM of Compound 1 for indicated time. Amount and phosphorylation status of cofilin were determined as described in Example 2.

[2] = test system: actin network of HeLa cells; assay: Stability of the actin network to a depolymerization induced by latrunculin B; assay type: cell-based, Human
Procedure: 7. a step of analysis of the effect of the compound to be tested on the actin network, via incubation of HeLa cells with the compound to be tested. […] When the actin network is stabilized, the latrunculin-induced depolymerization of the actin network is limited.
The cells are grown on glass coverslips and incubated as for the tubulin staining. After elimination of the medium, the cells are washed with warm PBS then fixed, by addition of a solution of PBS/3.7% formaldehyde for 30 minutes at 37° C. The cells are washed with PBS then permeabilized with a solution of PBS/0.2% Triton X100 for 15 minutes at room temperature. After another washing with PBS, the cells are incubated with a solution of PBS/1% BSA for 30 minutes at room temperature. The cells are then incubated with phalloidin (0.165 μM final concentration) labelled with Alexa Fluor® 488 (Molecular Probes, Invitrogen) for 20 minutes at room temperature. The cells are washed a final time with PBS then dehydrated with pure ethanol. Finally, the cells are fixed to slides using a Fluorsave™ mounting solution.
8) Test for the Action on the Actin Cytoskeleton: Protocol for Evaluating, in Cells, the Stability of the Actin Network to a Depolymerization Induced by Latrunculin B
3 days before the experiment, glass coverslips are deposited under sterile conditions in 24-well microplates. In each well, HeLa cells (15 000 cells per well) in the exponential growth phase are seeded in 500 μl of RPMI medium.
PBS (phosphate buffered saline, ref. P4417, Sigma), PBS/1% BSA (bovine serum albumin, Ref. A3059, Sigma), aliquots of 15 ml, stored at −20° C.; PBS/0.2% Triton X100 (Ref. T8787, Sigma); PBS/0.01% Tween® 20 (Ref. P9916, Sigma); PBS/0.3% BSA/0.02% NaN3 (Ref. for the NaN3: 6688, Merck), aliquots of 15 ml stored at −20° C. Phalloidin A488, (Ref. A12379, Invitrogen). L4: rabbit anti-detyrosinated-tubulin polyclonal antibody (cf. Fonrose et al., Cancer Res., […], 67:3371-3378). Anti-rabbit antibody coupled to Cyanine 3 (Ref. 111.165.144, Jackson Laboratories). […]

Compound	Reversibility of inhibition of Ser3-cofilin phosphorylation in HeLa cells ([1]; 25 μM for 2 h, then replaced by RPMI medium)	Inhibition of Ser3-cofilin phosphorylation in HeLa cells [1]	Treatment time after which the inhibitory effect on cofilin phosphorylation is detected ([1]; HeLa, 25 μM) [min]	Protection of the actin network from depolymerization by latrunculin B ([2]; HeLa cells, confocal microscope)	Effect on the stabilization of actin microfilaments ([2]; general statement)
Cc1c2cc[nH]c(=O)c2c(C)c2c1[nH]c1ccc(OC(=O)c3ccccc3)cc12 [Compound 1, 9-benzoyloxy-5,11-dimethyl-2H,6H-pyrido[4,3-b]carbazol-1-one]	phospho-cofilin is synthesized again	clearly inhibits the formation of phospho-cofilin, in a dose-dependent manner	30	protects the actin network	
Cc1c2ccncc2c(C)c2c1[nH]c1ccccc12 [ellipticine]		does not avoid the phosphorylation of cofilin			does not have any effect
